How the values were obtained:
PBMCs = PBMCs treated with HEMA or CDDP, FITC-Annexin V and PI; format: cell-based; conditions: about 18 hours, highest concentration of CDDP, HEMA 0.0164M-0.00164M
Source text: The cells were then stained with FITC-Annexin V and PI according to the manufacturer's protocol.

active caspase 3 = test: Active caspase 3 staining in PBMCs treated with HEMA or CDDP; format: cell-based; conditions: HEMA 0.0164M
IL-2 treated PBMCs = test: Tritiated thymidine proliferation of IL-2 treated PBMCs; format: cell-based; conditions: HEMA and NAC, 24 hours with tritiated thymidine
Experimental: Tritiated thymidine was added to the cells and after 24 hours of incubation assessed for proliferation.

odontoblasts = test: Cell viability of rat odontoblasts; format: cell-based; conditions: 0.0164M-0.00164M HEMA with NAC 20 mM, about 12-14 hours, versus HEMA alone
Experimental: Differentiation was induced by the addition of about 10 mM of β-glycerophosphate and about 50 μg/ml of ascorbic acid.

[1] = tested on: dental pulp stromal cells; test: Cell death in rat dental pulp stromal cells in vitro; format: cell-based, Sprague-Dawley rats; conditions: 0.0328M and 0.00328M HEMA with NAC 20 mM, about 12-14 hours, versus HEMA alone
Source text: In a first study using dental pulp stromal cells, dental pulp tissue was extracted from the lower central incisors of 8-12 week old male Sprague-Dawley rats. The lower central incisors were carefully extracted without fracture to avoid periodontal tissue influx into the pulp tissue. The periodontal tissue and other soft tissue remnants were removed from the root part of the teeth, and the incisor tip and root parts were then cut to allow the pulp tissue to be washed out. The extracted tissue was then treated with 0.1% collagenase in 0.25% trypsin EDTA at 37° C. for about 15 minutes. The pellet of released cells was then centrifuged at about 2000 rpm for about 4 minutes and resuspended in DMEM supplemented with 10% FBS, 1% sodium pyruvate, 1% non-essential amino acids and 1% antibiotic-antimycotic. The cells were cultured in a 6 well plate and the media was changed every 3 days.

gingival cells = test: PI/FITC-Annexin V cell survival of rat gingival cells; format: cell-based; conditions: 0.0164M-0.00164M HEMA with NAC 20 mM, about 12-14 hours, versus HEMA alone
Experimental: Rat gingival cells were obtained from 8 week old male rats and cultured in DMEM supplemented with 10% FBS, 1% antibiotic-antimycotic, 1% sodium pyruvate and 1% non-essential amino acids. […] Cell survival was measured by PI/FITC-Annexin V staining as described previously.

[2] = tested on: human dental pulp stromal cells; test: ALP staining of human dental pulp stromal cells; format: cell-based; conditions: after 7 days of incubation; NAC 20 mM
Experimental: Following the experiment described above in human dental pulp stromal cells, treatments were carried out as described above with the levels of ALP staining representing maturation/differentiation of dental pulp stromal cells. This staining was performed after 7 days of incubation. […] Odontoblasts

[3] = tested on: human dental pulp stromal cells; test: Extracted human teeth restored with composite resin with or without NAC: pulp cell growth; conditions: restorations left 5 hours; 14 days of incubation
Experimental: Three freshly extracted human teeth were obtained. Cavity preparations were performed on 2 freshly extracted third molars before restoration. One molar was left untouched and used as control. Specifically, tooth #1 was left untreated; tooth #2 was restored with composite resin alone; and tooth #3 was restored with composite resin after application of NAC. […] Single cell suspensions of control and each restored tooth were then cultured in the presence of β-glycerophosphate (10 mM) and ascorbic acid (50 μg/ml) and microscopic pictures taken after 14 days of incubation for growth.

[4] = tested on: differentiated pulp cells (odontoblasts); test: Composite discs on differentiated pulp cells, FITC-Annexin V/PI; format: cell-based; conditions: completely cured composite discs in 0.4 μm inserts; one week
Experimental: Next, the effects of routinely used composites on the odontoblasts were tested. The composite discs were made according to ADA specifications. These discs were completely cured for a total time of about 90 seconds. The discs were then placed into culture dish inserts (Millipore, Calif.). […] The insert along with the composite disc were placed into the well containing the differentiated pulp cells. After one week of incubation at about 37° C. the cells were removed and the numbers of apoptotic cells were analyzed using FITC-Annexin V/PI as described previously.

[5] = tested on: human dental pulp stromal cells; test: Apoptosis in human dental pulp stromal cells, 18 hours; format: cell-based; conditions: HEMA and NAC 20 mM
Experimental: Pulp was then removed, minced and treated with trypsin/EDTA and collagenase to release the dental pulp stromal cells. […] Next the cells were analyzed for apoptosis using FTIC-Annexin V and PI.

[6] = tested on: teeth and surrounding tissue; test: Rat tooth bleaching with or without NAC: photographs of teeth and tissue; format: in vivo
Experimental: Rats were divided into the following groups: A: control, unbleached; B: bleached with no NAC; and C: Bleached with NAC. The bleaching agent used in the following studies was Oral B Rembrandt whitening system (containing 33% hydrogen peroxide and carbamide) often used in dental offices (chair side). NAC was initially painted on teeth at a 20 mM concentration for 5 minutes. Next a bleaching agent was applied for 5 hours, after which the teeth were extracted, and pulp was obtained from each group and treated with trypsin/EDTA (0.25%) and collagenase (0.02%). […] Also note that bleaching in the presence of NAC (F) was as effective as bleaching without the NAC (E). […] Note the white tissue in the absence of NAC which represents dead and dying tissue.

[7] = tested on: osteopontin (OPN) and osteocalcin (OCN); test: RT-PCR for osteopontin and osteocalcin in rat dental pulp stromal cells; format: cell-based; conditions: media containing ascorbic acid and β-glycerophosphate
Source text: Rat dental pulp stromal cells were again cultured under 3 different conditions: (1) DMEM alone (undifferentiated); (2) DMEM+β-glycerophosphate+ascorbic acid (differentiated−Dex); and (3) DMEM+β-glycerophosphate+ascorbic acid+dexamethasone (differentiated+Dex). The differentiation of the cells under these different culture conditions was then confirmed by an RT-PCR to assay for genes which are induced during differentiation (osteopontin and osteocalcin). Osteopontin (OPN), is an early osteoblastic marker and osteocalcin (OCN) a late stage marker.
RNA was extracted from the cells and PCR was again performed for OPN and OCN.

dental pulp cells = test: Rat incisor restoration with Herculite XR/ProBOND with or without NAC: pulp cell growth and ALP staining; format: in vivo, rats; conditions: restorative materials about 5 hours
Experimental: In a next experiment, the incisors of nine eight-week-old male rats were prepared with class V preparations near the level of the gingival using a #1 round bur in a high speed dental handpiece.
Again, in this experiment upper and lower incisors were used. Restorative materials were placed on the teeth for about 5 hours. The pulp was extracted and treated with trypsin/EDTA (0.25%) and collagenase (0.02%), washed and resuspended in DMEM containing β-glycerophosphate (10 mM) and ascorbic acid (50 μg/ml) and allowed to grow to confluency. After 14 days of cell growth (media changed every 2-3 days) photographs were taken using an inverted microscope; cells were detached and counted in each experimental group; and wells containing different experimental groups were stained for alkaline phosphatase (ALP).
In vivo studies were performed after tooth restorations to assess the protective effect of NAC on both the viability and function of rat pulp tissue. Eight week old male rats were used for restorations of the incisors. In this study the number of functional cells in cells extracted from the lining of the rat teeth where (A) no restorative materials were administered; (B) restorative materials only were applied; and (C) restorative material in conjunction with NAC were compared. Specifically, nine rats were used and were divided into 3 groups (A, B or C) of 3 rats each. […]

[8] = tested on: dental pulp stromal cells; test: Rat tooth bleaching: dental pulp stromal cell growth, count and ALP; format: in vivo, rats; conditions: bleaching agent 5 hours, without or with NAC 20 mM painted 5 minutes; 12-21 days
Experimental: Similar studies were also carried out using dental pulp stromal cells. Rats were divided into three groups: (1) Control (no bleach); (2) Bleach; and (3) Bleach and NAC. In these studies, NAC was initially painted on to the teeth (20 mM concentration) for 5 minutes and then bleaching agent applied for 5 hours, after which the teeth were extracted, and pulp was obtained from each group. Pulp was treated with trypsin/EDTA (0.25%) and collagenase (0.02%) to obtain single cell suspension of the cells, washed and resuspended in DMEM containing β-glycerophosphate (10 mM) and ascorbic acid (50 μg/ml), and allowed to grow to confluency, before either photographs were taken (12-21 days; FIG. 47); cells were counted (21 days; FIG. 48); or ALP staining was performed (21 days; FIG. 49). […] Whitening Strips

Compound | cells remained both PI and Annexin V negative (PBMCs) | increase in active caspase 3 staining compared to the CDDP treated cells (active caspase 3) | active caspase 3 staining (active caspase 3; CDDP) | proliferation (IL-2 treated PBMCs) | percentage of viable cells (odontoblasts) | viable cells after HEMA exposure [1] | viable cells after HEMA exposure (gingival cells) | HEMA-mediated decrease in ALP [2] | growth of pulp cells [3] | apoptotic cells (FITC-Annexin V/PI) [4] | inhibition of HEMA-mediated cell death [5] | efficacy or potency of the bleaching system ([6]; NAC 20 mM painted on teeth 5 minutes, then bleaching agent 5 hours) | white (dead and dying) tissue after bleaching ([6]; bleaching agent 5 hours, without or with NAC 20 mM) | differentiation markers OPN and OCN [7] | pulp cell number after restoration (dental pulp cells; 14 days of cell growth) | ALP staining of pulp cells after restoration (dental pulp cells; composite resin with or without NAC) | cytotoxicity and cell death of dental pulp stromal cells [8]
C=C(C)C(=O)OCCO [HEMA, hydroxyethyl methacrylate] | less than 50% | about 2 fold | 42% | – | – | – | – | – | – | – | – | – | – | – | – | – | –
CC(=O)N[C@@H](CS)C(=O)O [NAC, N-acetyl-cysteine] | – | – | – | can prevent HEMA-induced loss of proliferation | percentage of viable cells increases | higher number of viable cells | higher number of viable cells | significantly prevented | growth and expansion of the cells resulted | inhibits cell death induced by light cured composite disks | significant inhibition of HEMA-mediated cell death at all HEMA concentrations | does not decrease the efficacy or potency of the bleaching system | the amount of white tissue is minimal | express higher levels of OPN and OCN | can help to prevent the cell loss | can be ameliorated | could be reversed

Source: patent publication US8481005B2, “Methods to prevent cytotoxicity using N-acetyl-cysteine” (priority 2006, dated 2013)
